# Assay results published in patent US20180185374A1, “INHIBITORS OF MTOR KINASE AS ANTI-VIRAL AGENTS” (THE TRUSTEES OF PRINCETON UNIVERSITY, priority 2009, published 2018).
# How the values were obtained:
# [1] = test system: MCMV; assay: MCMV replication in MEFs, cell-free virus by TCID50; assay type: cell-based, murine cytomegalovirus; details: Torin1 250 nM
# [2] = test system: rpS6; assay: rpS6 phosphorylation in HCMV-infected fibroblasts, Western blot; assay type: cell-based, human; details: rapamycin 20 nM, Torin1 250 nM; 3 PFU/cell
# Experimental: (§1) FIG. 4. Rapamycin-resistant mTOR activity is required for 4EBP1 phosphorylation and eIF4F complex integrity during HCMV infection. Serum-starved confluent human fibroblasts were infected with HCMV at a multiplicity of 3 PFU/cell. […] (A) At 48 hpi the phosphorylation status of mTORC1 targets was assessed by Western blot assay by using antibodies to phosphorylated targets (4EBP1-PT^37/46 and rpS6-PS^235/6) and total proteins. Tubulin was assayed as a loading control. (B) Same as above (A) except that cells were harvested at the indicated times. (C and D) After mock infection (M) or infection with HCMV (WT) at a multiplicity of 3 PFU/cell, cultures were harvested at the indicated times. Equivalent amounts of protein from each sample were incubated with m^7GTP-Sepharose, and the isolated protein complexes were analyzed by Western blotting using the indicated antibodies to the eIF4F complex and 4EBP1. In all cases the results are representative of at least two independent experiments. lys, lysate.
# (§2) HCMV infection induces mTORC1 activity, but the phosphorylation of mTORC1 targets is differentially sensitive to the mTORC1 inhibitor rapamycin. […] Total 4EBP1, rpS6, and tubulin levels were monitored to control for protein recovery. […]
# [3] = test system: HCMV; assay: HCMV DNA accumulation by qPCR; assay type: cell-based, human cytomegalovirus; details: 96 hpi; Torin1 250 nM; 0.05 PFU/cell
# Experimental: FIG. 3. […] (A) Rapamycin-resistant mTOR activity is required for the accumulation of an some but not all HCMV proteins. […] Cells were harvested at the indicated times, and the accumulation of the indicated proteins was analyzed by Western blotting. […] At the indicated times DNA was isolated, and viral DNA was quantified by qPCR. Equivalent amounts of DNA were analyzed for each sample, and the results are normalized to the level of actin DNA per sample. […] At the indicated times the amount of UL99 RNA was determined by qPCR, and the results are normalized to the amount of actin RNA in each sample.
# (§3) Determination of viral DNA and transcript accumulation in infected cells. The accumulation of viral DNA during HCMV infection was monitored by quantitative PCR (qPCR) as described previously (Terhune, et al. (2007) J. Virol. 81:3109-3123).
# (§4) Briefly, primary human fibroblasts were infected with BADinGFP at a multiplicity of 0.05 PFU/cell. At the indicated times, cells were harvested by scraping them into medium and were stored as frozen cell pellets until analysis. Cell pellets were resuspended in 500 μl of a solution containing 400 mM NaCl, 10 mM Tris (pH 7.5), and 10 mM EDTA. […] For each sample, DNA was quantified by using a NanoDrop spectrophotometer (Thermo Scientific). […]
# Viral DNA accumulation was measured by quantitative real-time PCR of fibroblasts treated with rapamycin or Torin1. […]
# [4] = test system: HCMV; assay: HCMV entry: cell-associated viral DNA at 2 hpi by real-time PCR; assay type: cell-based, human cytomegalovirus; details: 250 nM, 24 h pretreatment or after adsorption, 3 PFU/cell
# Experimental: FIG. 2. […] Serum-starved confluent fibroblasts were infected with HCMV at a multiplicity of 3 PFU/cell. […] Control cultures received the vehicle in which Torin1 was dissolved (NT). At 2 hpi cells were harvested, and cell-associated viral DNA was quantified by real-time PCR analysis. Error bars represent the standard errors of the means from two independent experiments performed in duplicate. […] The level of IE1 was determined at 6 hpi by a Western blot assay using an IE1-specific monoclonal antibody. The image is representative of two independent experiments. […] The expression of a GFP marker gene present in the viral genome was monitored at 24 h after infection in the presence or absence of drug.
# as §3, §4
# [5] = test system: cells; details: concentrations of up to 500 nM; previous reports; cited from earlier work
# [6] = test system: 4EBP1; assay: 4EBP1 phosphorylation in HCMV-infected fibroblasts, Western blot; assay type: cell-based, human; details: rapamycin 20 nM, Torin1 250 nM; 3 PFU/cell
# Experimental: as §1, §2
# [7] = test system: HCMV; assay: Torin1 drug release experiment, HCMV yield 16 days post infection by TCID50; assay type: cell-based, human cytomegalovirus; details: ≤250 nM drug
# Experimental: FIG. 1. […] Serum-starved confluent human fibroblasts were infected with HCMV at a multiplicity of 0.05 PFU/cell. Cell-free virus was quantified by a TCID50 assay, and error bars represent the standard errors of the means from two independent experiments, each performed in duplicate. […] Supernatants were harvested every other day and replaced with fresh medium containing the appropriate treatment, and virus in the supernatant was assayed on the indicated days. […] Infected fibroblasts were treated with various doses of Torin1. Medium with drug was replaced every other day, and virus in the supernatant was assayed on day 8 post infection (black bars). On day 8, a second set of cultures was washed twice, serum-free medium containing no drug was added to each well, and virus was assayed after an additional 8 days (16 days post infection) (white bars).
# To further confirm that the viral growth defect was not the result of cytotoxicity, we performed a drug release experiment. […] Eight days later, virus in the supernatant was quantified by the TCID50 method (16 days post infection) (FIG. 1B).
smiles,measurement,setting,value
CCC(=O)N1CCN(c2ccc(-n3c(=O)ccc4cnc5ccc(-c6cnc7ccccc7c6)cc5c43)cc2C(F)(F)F)CC1 [Torin1],MCMV replication,"[1]; 4EBP1-null MEFs, rapamycin 20 nM, 6 days post infection",no longer capable of inhibiting
same,MCMV replication,[1]; Akt1/Akt2-null MEFs,Torin-sensitive
same,MCMV replication,"[1]; Rictor-null MEFs, 6 days post infection",effectively inhibited
same,MCMV replication,"[1]; wild-type MEFs, 0.05 PFU/cell, rapamycin 20 nM",inhibited MCMV replication
same,induction of rpS6 phosphorylation during HCMV infection,[2],markedly inhibited
same,reduction of viral DNA accumulation,[3],150 fold
same,level of cell-associated viral DNA,[4],not influenced
same,cell killing,[5],does not kill cells
same,phosphorylation of 4EBP1 during HCMV infection,[6],substantially blocked
same,increase in virus yield after reversal of 8-day treatment,[7],≥ 100 fold
